Earlier results, collected in patent publication US5650415A, “Quinoline compounds” (Sugen, Inc., priority 1995, dated 1997).

Tests used:
[1] = test system: IGF-1R protein tyrosine kinase; settings: Sepp-Lorenzino et al., Abstract, 1994; cited from earlier work
[2] = test system: human breast cancer cells; settings: Sepp-Lorenzino et al., Abstract, 1994; cited from earlier work

COC1C=CC=C(C)C(=O)NC2=CC(=O)C=C(C2=O)C(OC)C(C)CC(OC)C(OC)C(C)C=C(C)C1OC(N)=O (centres unmarked) [Herbimycin A]
inhibition of IGF-1R protein tyrosine kinase [1]: inhibit the IGF-1R protein tyrosine kinase | inhibition of cellular proliferation [2]: inhibit the IGF-1R protein tyrosine kinase and cellular proliferation in human breast cancer cells
